Results: article PMC5097156, “Potent and selective chemical probe of hypoxic signalling downstream of HIF-α hydroxylation via VHL inhibition” (Nature Communications, 2016)

Key:
Test in all cases: biochemical
Parameters in all cases: Dundee MRC-PPU Express kinase screen, remaining kinase activity
Conditions in all cases: read-out: Mean % of remaining kinase activity (±sd)
[1] = target: T1, AMPK (hum) (Homo sapiens, UniProt Q13131)
T1 construct: gene PRKAA1

[2] = target: CAMK1 (Homo sapiens, UniProt Q14012)
[3] = target: T2, CAMKKb (Homo sapiens, UniProt Q96RR4)
T2 construct: gene CAMKK2

[4] = target: T3, CHK2 (Homo sapiens, UniProt O96017)
T3 construct: gene CHEK2

[5] = target: T4, CK1δ (Homo sapiens, UniProt P48730)
T4 construct: gene CSNK1D

[6] = target: T5, CK2 (Homo sapiens, UniProt P68400)
T5 construct: gene CSNK2A1

[7] = target: DYRK1A (Homo sapiens, UniProt Q13627)
[8] = target: T6, EF2K (Homo sapiens, UniProt O00418)
T6 construct: gene EEF2K

[9] = target: T7, EPH-A2 (Homo sapiens, UniProt P29317)
T7 construct: gene EPHA2

[10] = target: T8, HER4 (Homo sapiens, UniProt Q15303)
T8 construct: gene ERBB4

[11] = target: HIPK2 (Homo sapiens, UniProt Q9H2X6)
[12] = target: T9, IGF-1R (Homo sapiens, UniProt P08069)
T9 construct: gene IGF1R

[13] = target: IRAK4 (Homo sapiens, UniProt Q9NWZ3)
[14] = target: JAK3 (Homo sapiens, UniProt P52333)
[15] = target: T10, JNK1 (Homo sapiens, UniProt P45983)
T10 construct: gene MAPK8

[16] = target: MARK3 (Homo sapiens, UniProt P27448)
[17] = target: T11, MKK1 (Homo sapiens, UniProt Q02750)
T11 construct: gene MAP2K1

[18] = target: T12, MST2 (Homo sapiens, UniProt Q13188)
T12 construct: gene STK3

[19] = target: PIM1 (Homo sapiens, UniProt P11309)
[20] = target: T13, PKA (Homo sapiens, UniProt P17612)
T13 construct: gene PRKACA

[21] = target: PLK1 (Homo sapiens, UniProt P53350)
[22] = target: RIPK2 (Homo sapiens, UniProt O43353)
[23] = target: T14, RSK1 (Homo sapiens, UniProt Q15418)
T14 construct: gene RPS6KA1

[24] = target: SGK1 (Homo sapiens, UniProt O00141)
[25] = target: SYK (Homo sapiens, UniProt P43405)
[26] = target: Src (Homo sapiens, UniProt P12931)
[27] = target: T15, TAK1 (Homo sapiens, UniProt O43318)
T15 construct: gene MAP3K7

[28] = target: TBK1 (Homo sapiens, UniProt Q9UHD2)
[29] = target: TTK (Homo sapiens, UniProt P33981)

T1 sequence (Q13131 whole entry): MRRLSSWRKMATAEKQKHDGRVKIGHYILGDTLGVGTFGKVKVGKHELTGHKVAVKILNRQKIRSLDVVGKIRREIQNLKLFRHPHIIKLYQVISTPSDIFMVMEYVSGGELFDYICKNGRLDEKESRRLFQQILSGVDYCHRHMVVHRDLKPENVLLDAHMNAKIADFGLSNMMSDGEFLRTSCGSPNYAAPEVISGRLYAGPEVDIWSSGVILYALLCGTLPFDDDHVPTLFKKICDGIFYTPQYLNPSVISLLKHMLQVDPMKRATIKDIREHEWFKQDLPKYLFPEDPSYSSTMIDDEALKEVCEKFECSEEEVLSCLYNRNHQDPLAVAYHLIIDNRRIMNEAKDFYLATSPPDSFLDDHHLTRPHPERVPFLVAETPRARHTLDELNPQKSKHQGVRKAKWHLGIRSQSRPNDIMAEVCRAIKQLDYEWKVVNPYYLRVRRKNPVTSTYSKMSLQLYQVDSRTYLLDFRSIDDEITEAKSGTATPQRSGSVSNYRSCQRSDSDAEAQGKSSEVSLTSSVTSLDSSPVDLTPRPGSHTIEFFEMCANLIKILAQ
Sequence of RIPK2 (O43353 whole entry): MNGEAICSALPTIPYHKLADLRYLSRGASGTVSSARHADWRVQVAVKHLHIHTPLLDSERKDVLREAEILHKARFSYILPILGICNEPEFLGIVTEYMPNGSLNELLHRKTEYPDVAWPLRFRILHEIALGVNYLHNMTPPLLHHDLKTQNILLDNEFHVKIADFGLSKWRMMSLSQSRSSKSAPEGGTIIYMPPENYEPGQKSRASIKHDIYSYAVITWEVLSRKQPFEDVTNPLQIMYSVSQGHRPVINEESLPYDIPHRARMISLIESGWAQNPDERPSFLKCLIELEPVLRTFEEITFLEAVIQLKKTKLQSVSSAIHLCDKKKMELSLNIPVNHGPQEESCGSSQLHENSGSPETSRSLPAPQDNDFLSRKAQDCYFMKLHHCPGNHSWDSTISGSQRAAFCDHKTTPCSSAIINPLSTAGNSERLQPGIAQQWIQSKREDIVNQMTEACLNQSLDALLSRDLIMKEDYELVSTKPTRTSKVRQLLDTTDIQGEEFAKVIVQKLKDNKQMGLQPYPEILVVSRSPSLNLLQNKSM
Sequence of MARK3 (P27448 whole entry): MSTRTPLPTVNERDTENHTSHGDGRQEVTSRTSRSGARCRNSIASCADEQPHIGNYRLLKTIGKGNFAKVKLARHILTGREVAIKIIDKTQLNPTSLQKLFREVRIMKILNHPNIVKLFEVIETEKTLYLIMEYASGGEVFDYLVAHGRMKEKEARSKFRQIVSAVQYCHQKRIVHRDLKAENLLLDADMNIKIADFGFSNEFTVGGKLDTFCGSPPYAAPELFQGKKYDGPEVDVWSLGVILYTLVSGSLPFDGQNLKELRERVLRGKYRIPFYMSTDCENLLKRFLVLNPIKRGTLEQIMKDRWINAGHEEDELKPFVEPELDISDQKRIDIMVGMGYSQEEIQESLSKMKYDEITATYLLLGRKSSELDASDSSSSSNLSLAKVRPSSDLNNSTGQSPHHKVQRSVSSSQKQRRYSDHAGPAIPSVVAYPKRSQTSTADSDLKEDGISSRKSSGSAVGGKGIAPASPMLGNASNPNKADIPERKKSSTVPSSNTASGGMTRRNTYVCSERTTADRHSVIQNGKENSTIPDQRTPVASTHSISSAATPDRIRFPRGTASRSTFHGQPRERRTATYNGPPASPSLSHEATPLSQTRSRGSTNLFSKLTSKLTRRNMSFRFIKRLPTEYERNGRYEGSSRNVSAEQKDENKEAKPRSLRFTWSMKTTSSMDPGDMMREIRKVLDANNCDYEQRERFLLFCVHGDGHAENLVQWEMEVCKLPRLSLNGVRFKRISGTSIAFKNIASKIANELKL
T14 sequence (Q15418 whole entry): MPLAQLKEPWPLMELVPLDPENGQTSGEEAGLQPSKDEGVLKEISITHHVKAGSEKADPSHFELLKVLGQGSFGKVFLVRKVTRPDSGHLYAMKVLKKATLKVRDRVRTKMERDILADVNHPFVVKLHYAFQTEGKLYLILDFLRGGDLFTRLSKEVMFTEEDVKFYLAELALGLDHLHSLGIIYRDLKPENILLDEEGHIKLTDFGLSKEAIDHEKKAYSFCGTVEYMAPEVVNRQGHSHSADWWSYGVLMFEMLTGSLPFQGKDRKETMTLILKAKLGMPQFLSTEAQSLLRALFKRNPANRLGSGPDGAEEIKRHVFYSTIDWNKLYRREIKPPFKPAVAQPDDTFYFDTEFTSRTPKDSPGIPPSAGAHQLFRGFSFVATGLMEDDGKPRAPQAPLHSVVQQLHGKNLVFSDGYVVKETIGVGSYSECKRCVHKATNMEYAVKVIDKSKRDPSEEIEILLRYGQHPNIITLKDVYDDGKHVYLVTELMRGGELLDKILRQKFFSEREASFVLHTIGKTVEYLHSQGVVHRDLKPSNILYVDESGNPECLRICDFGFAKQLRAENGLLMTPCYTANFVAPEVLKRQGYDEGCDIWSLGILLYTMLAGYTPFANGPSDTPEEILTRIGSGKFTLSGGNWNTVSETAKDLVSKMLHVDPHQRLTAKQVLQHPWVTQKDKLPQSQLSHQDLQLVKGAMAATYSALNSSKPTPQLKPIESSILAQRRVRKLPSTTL
T10 sequence (P45983 whole entry): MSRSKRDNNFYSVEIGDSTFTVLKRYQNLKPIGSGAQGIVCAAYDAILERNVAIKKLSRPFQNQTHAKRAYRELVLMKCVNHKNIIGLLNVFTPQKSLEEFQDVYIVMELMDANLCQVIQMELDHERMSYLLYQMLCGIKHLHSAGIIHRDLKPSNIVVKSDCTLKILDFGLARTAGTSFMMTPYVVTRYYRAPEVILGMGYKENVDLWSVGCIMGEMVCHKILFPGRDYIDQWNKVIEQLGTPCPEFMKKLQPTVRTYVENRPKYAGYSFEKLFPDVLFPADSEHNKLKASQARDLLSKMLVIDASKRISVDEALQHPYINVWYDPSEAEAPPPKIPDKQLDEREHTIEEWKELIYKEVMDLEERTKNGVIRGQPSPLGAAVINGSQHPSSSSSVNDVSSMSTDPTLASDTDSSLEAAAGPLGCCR
T2 sequence (Q96RR4 whole entry): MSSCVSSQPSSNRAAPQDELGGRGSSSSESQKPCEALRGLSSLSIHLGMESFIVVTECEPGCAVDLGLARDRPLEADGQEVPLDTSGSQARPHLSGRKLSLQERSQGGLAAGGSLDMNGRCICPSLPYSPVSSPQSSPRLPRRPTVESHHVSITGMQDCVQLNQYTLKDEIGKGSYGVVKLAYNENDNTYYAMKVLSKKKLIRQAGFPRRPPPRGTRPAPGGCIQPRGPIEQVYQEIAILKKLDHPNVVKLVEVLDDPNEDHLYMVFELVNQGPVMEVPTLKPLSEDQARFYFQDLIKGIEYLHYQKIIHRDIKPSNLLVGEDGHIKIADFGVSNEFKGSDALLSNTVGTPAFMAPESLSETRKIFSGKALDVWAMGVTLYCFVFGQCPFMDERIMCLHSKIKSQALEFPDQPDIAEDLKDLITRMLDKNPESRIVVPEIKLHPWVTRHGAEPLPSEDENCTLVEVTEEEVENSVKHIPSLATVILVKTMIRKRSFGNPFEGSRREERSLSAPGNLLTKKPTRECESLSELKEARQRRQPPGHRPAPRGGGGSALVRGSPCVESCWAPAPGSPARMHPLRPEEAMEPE
T7 sequence (P29317 whole entry): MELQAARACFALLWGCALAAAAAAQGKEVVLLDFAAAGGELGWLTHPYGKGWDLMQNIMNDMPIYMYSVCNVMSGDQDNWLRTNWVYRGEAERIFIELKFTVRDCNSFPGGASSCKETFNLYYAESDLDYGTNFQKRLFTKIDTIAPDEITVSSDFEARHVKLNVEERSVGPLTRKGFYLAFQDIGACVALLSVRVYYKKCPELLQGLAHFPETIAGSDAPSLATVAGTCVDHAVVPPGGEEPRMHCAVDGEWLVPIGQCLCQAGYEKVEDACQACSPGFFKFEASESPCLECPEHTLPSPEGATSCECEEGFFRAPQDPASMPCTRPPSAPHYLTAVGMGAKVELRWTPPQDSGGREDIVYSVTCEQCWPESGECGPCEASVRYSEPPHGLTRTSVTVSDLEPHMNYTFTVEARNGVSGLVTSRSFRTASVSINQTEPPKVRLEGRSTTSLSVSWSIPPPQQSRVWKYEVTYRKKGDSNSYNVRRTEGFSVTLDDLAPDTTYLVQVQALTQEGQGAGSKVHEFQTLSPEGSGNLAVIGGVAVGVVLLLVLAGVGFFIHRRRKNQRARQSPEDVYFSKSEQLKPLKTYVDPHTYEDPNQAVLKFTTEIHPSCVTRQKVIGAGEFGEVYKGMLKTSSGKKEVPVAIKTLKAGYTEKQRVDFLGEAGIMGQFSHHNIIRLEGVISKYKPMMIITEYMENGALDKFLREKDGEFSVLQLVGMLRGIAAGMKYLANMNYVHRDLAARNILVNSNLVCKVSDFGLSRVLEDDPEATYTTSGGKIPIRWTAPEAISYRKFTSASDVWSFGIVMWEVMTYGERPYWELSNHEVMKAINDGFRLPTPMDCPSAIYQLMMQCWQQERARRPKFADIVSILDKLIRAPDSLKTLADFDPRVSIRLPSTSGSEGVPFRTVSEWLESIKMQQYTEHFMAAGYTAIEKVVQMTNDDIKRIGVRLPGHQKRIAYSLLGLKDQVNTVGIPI
Sequence of IRAK4 (Q9NWZ3 whole entry): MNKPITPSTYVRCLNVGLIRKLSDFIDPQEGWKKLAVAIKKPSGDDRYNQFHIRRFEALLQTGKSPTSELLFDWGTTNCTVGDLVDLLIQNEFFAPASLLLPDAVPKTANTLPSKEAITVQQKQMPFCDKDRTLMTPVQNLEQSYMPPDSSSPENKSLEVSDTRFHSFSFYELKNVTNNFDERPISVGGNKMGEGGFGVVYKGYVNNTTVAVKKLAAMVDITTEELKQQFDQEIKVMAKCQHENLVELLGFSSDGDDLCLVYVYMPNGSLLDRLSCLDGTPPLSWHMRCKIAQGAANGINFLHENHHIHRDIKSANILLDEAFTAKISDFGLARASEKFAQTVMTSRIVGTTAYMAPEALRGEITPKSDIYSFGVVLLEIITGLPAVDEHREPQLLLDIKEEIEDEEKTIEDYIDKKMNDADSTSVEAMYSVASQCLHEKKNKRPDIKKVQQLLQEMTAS

Question: Which remaining activity at 50 µM [1] does the source give for `Cc1ncsc1-c1ccc(CNC(=O)[C@@H]2C[C@@H](O)CN2C(=O)[C@@H](NC(=O)C2(C#N)CC2)C(C)(C)C)cc1` [VH298] here?
Answer: 101%

Question: And the remaining activity at 50 µM [2]?
Answer: 81%

Question: And the remaining activity at 50 µM [3]?
Answer: 101%

Question: What about the remaining activity at 50 µM [4] of the same compound?
Answer: 93%

Question: What about the remaining activity at 50 µM [5] of the same compound?
Answer: 99%

Question: What about the remaining activity at 50 µM [6] of the same compound?
Answer: 116%

Question: And the remaining activity at 50 µM [7]?
Answer: 76%

Question: What about the remaining activity at 50 µM [8] of the same compound?
Answer: 116%

Question: And the remaining activity at 50 µM [9]?
Answer: 107%

Question: What about the remaining activity at 50 µM [10] of the same compound?
Answer: 96%

Question: And the remaining activity at 50 µM [11]?
Answer: 100%

Question: And the remaining activity at 50 µM [12]?
Answer: 110%

Question: And the remaining activity at 50 µM [13]?
Answer: 112%

Question: What about the remaining activity at 50 µM [14] of the same compound?
Answer: 99%

Question: And the remaining activity at 50 µM [15]?
Answer: 119%

Question: And the remaining activity at 50 µM [16]?
Answer: 94%

Question: And the remaining activity at 50 µM [17]?
Answer: 85%

Question: And the remaining activity at 50 µM [18]?
Answer: 98%

Question: What about the remaining activity at 50 µM [19] of the same compound?
Answer: 92%

Question: What about the remaining activity at 50 µM [20] of the same compound?
Answer: 68%

Question: And the remaining activity at 50 µM [21]?
Answer: 100%

Question: And the remaining activity at 50 µM [22]?
Answer: 112%

Question: What about the remaining activity at 50 µM [23] of the same compound?
Answer: 94%

Question: And the remaining activity at 50 µM [24]?
Answer: 83%

Question: And the remaining activity at 50 µM [25]?
Answer: 103%

Question: And the remaining activity at 50 µM [26]?
Answer: 112%

Question: What about the remaining activity at 50 µM [27] of the same compound?
Answer: 111%

Question: And the remaining activity at 50 µM [28]?
Answer: 110%

Question: And the remaining activity at 50 µM [29]?
Answer: 97%
